{"source": "patent US9573972B2", "about": "“Nurotoxic sterol glycosides” (priority 2008, dated 2017)", "test_system": "lumbar spinal cord α- and γ-motor neurons", "assay": "Motor neuron counts (cresyl violet, Nissl), lumbar spinal cord", "format": "in vivo, mouse", "protocol": "Mice were sacrificed for histological analysis at 35 weeks (35.9-48.6 g) and 52 weeks (41.2-51.4 g) of age. Age-matched control mice from each time point were included for comparison. The mice were deeply anaesthetized in a chamber with 4% isoflurane and perfused intracardially with filtered PBS (pH 7.4) until the effluent was cleared of blood (2 minutes), followed by perfusion with cold (4° C.) 4% paraformaldehyde (PFA) in 0.1 M phosphate buffer (pH 7.4) for 5 minutes (30 mL). The PBS and the PFA were delivered through separate sterile platinum-cured silicon tubing (Cole-Parmer Canada Inc., Montreal, Canada) and peristaltic pumps (MasterFlex peristaltic pump, Cole-Parmer Canada Inc., Montreal, Canada). The brains and spinal cords were dissected out and fixed overnight at 4° C. and equilibrated in increasing concentrations of sucrose in phosphate-buffered saline, pH 7.4 (10, 20, and 25%) over a 3-day period. Complete equilibration of the tissues was taken as the moment the tissues sank to the bottom of the scintillation tubes filled with 25% sucrose. After equilibration, the spinal cord and brain specimens were set in molds (Tissue-tek Cryomold, Sakura Finetek, USA, Torrance, Calif.) with an optimum cutting temperature (OCT) gel-sucrose mixture frozen by immersion in an isopentane (BDH Laboratory Supplies, UK) bath on dry ice and stored at −80° C. until processing.\nCryosectioning of tissue: Frozen, coronal sections (spinal cord: 20 μm, brain: 30 μm) were cut with a Hacker-Bright cryostat (Hacker Instruments and Industries Inc., Winnsboro, S.C.) and mounted on charged glass slides (Superfrost Plus; Fisher Scientific, Pittsburgh, Pa.) so that adjacent CNS sections on each slide represented regions 100 μm and 150 μm apart for spinal cord and brain, respectively (Tabata et al., 2008). The slides were stored at −80° C. until histological processing. To ensure CNS sections were matched between animals, anatomical landmarks were verified using a mouse brain atlas (Paxinos and Franklin, The mouse brain in stereotaxic coordinates: Second Edition, K.B.J., Academic Press, New York, 2001).\nHistology and quantification of motor neurons: Spinal cord and brain sections from each animal were stained for Nissl body substance. At room temperature (RT), sections were rinsed in a graded ethanol series (95%:15 min; 70%:1 min; 50%:1 min) to rehydrate and remove lipids and fixation chemicals from the tissue. The tissue were then rinsed for 2 min in two exchanges of distilled water, stained with twice-filtered cresyl violet stain (1.25 g cresyl violet acetate, 0.75 mL glacial acetic acid to 250 mL distilled water), rinsed in distilled water (1 minute), and then dehydrated (50% ethanol: 1 minute; 1% glacial acetic acid-70% ethanol: 2 minutes; 95% ethanol: 2 minutes; 95% ethanol: 3 dips; 100% ethanol: 1 minute) and cleared in xylene. The slides were then cover-slipped in Entellen mountant (Merck, Darmstadt, Germany). The tissue mounted slides were selected with a randomized start and sampled starting from the lumbar 2 region to the 6th. […] The boundaries for the ventral horn was determined by the margins of the gray matter for the lateral, medial and ventral boundaries as well as with the aid of an artificial line drawn laterally through the central canal. Both the left and right ventral horns from 12 sections from each animal were counted. Alpha-motor neurons and γ-motor neurons with and without apoptotic structural changes were counted using strict morphological and size criteria. Non-apoptotic α-neurons were considered as the following: Large, multipolar cells with a round, pale nucleus; visible nucleolus; globular Nissl body staining of the cytoplasm; and a diameter of 30-45 μm. In doing so, astrocytes, oligodendrocytes and microglia were excluded from the “α-motor neuron” counts (Martin, L. J. (1999) J Neuropathol Exp Neurol. 58, 459-71; Sepkuty, J. P., et al. (2002) J Neurosci. 22, 6372-9; Tabata et al., 2008). […]", "key": {"[1]": {"conditions": "SG-fed vs control, Time-point 1 (35 wk)"}, "[2]": {"conditions": "SG-fed vs control, Time-point 2 (52 wk)"}, "[3]": {"conditions": "SG-group over time (35 to 52 wk)"}}}
{"smiles": "CC[C@H](/C=C/[C@@H](C)[C@H]1CC[C@H]2[C@@H]3CC=C4C[C@@H](O[C@@H]5O[C@H](CO)[C@@H](O)[C@H](O)[C@H]5O)CC[C@]4(C)[C@H]3CC[C@]12C)C(C)C", "note": "[SG, Stigmasterol β-D-Glucopyranoside]", "values": [{"measurement": "Chromatolytic α-MN", "setting": "[1]", "result": "Chromatolytic α-MN (ns)"}, {"measurement": "Healthy α-MN per lumbar cord section", "setting": "[1]", "result": "Healthy α-MN (ns)"}, {"measurement": "Pyknotic α-MN", "setting": "[1]", "result": "Pyknotic α-MN (ns)"}, {"measurement": "Total γ-MN", "setting": "[1]", "result": "Total γ-MN (ns)"}, {"measurement": "Chromatolytic α-MN", "setting": "[2]", "result": "Chromatolytic α-MN (ns)"}, {"measurement": "Pyknotic α-MN", "setting": "[2]", "result": "Pyknotic α-MN (ns)"}, {"measurement": "Total γ-MN", "setting": "[2]", "result": "Total γ-MN (ns)"}, {"measurement": "Chromatolytic α-MN over time", "setting": "[3]", "result": "(control group & SG-group independently over time) (ns)"}, {"measurement": "Pyknotic α-MN over time", "setting": "[3]", "result": "(control group and SG-group independently over time) (ns)"}, {"measurement": "Total γ-MN over time", "setting": "[3]", "result": "(control group and SG-group independently over time) (ns)"}]}
